Holding throughout (format): binding
Common to all, as to conditions: Compound Concentration 10 µM

Experiment [1] addresses T1, panel of 442 kinases (Homo sapiens, UniProt Q9NQU5).
T1 construct: purchased KINOMEscan
An excerpt:
(§1) We assessed the selectivity of members of this scaffold using the KINOMEscan methodology across a near comprehensive panel of 442 kinases [[18,27]].

Experiment [2] concerns the target T2, panel of 442 kinases (Homo sapiens, UniProt P08581, Y1235D).
T2 construct: purchased KINOMEscan
Source text: as §1

For experiment [3], the target named is T3, panel of 442 kinases (Homo sapiens, UniProt P41240).
T3 construct: purchased KINOMEscan
T3 sequence (P41240 whole entry): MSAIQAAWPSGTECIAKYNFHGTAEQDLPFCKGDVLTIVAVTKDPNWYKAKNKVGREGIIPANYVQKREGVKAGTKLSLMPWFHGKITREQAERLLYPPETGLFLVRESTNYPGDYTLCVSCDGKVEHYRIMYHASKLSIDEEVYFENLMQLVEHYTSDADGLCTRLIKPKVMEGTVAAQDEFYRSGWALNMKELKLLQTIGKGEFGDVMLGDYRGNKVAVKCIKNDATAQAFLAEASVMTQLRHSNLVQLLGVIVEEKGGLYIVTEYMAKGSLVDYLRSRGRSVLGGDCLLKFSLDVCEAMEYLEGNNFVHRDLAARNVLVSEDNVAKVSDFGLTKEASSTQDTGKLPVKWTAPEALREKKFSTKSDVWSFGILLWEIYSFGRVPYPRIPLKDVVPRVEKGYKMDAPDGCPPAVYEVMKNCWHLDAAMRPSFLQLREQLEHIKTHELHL
Source text: as §1

T1 sequence (Q9NQU5 whole entry): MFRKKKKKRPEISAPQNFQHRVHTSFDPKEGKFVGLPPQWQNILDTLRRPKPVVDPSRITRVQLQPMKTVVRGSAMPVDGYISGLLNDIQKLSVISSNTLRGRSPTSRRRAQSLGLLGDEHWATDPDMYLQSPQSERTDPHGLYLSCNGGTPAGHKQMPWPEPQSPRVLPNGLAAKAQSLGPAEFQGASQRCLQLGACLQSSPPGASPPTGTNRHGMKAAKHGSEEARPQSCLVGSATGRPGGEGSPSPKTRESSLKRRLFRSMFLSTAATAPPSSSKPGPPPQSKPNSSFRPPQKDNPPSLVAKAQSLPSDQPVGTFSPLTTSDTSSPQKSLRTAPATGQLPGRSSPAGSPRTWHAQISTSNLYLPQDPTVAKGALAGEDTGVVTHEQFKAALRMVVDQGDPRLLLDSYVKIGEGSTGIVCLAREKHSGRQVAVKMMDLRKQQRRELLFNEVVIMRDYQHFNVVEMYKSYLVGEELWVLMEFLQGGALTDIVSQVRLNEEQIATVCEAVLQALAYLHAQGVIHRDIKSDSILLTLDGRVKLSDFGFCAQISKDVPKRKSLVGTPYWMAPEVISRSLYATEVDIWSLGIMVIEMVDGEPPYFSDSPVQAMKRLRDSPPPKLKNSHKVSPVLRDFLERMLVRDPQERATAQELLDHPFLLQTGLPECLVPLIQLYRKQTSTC
T2 sequence (P08581 25-1390 Y1235D): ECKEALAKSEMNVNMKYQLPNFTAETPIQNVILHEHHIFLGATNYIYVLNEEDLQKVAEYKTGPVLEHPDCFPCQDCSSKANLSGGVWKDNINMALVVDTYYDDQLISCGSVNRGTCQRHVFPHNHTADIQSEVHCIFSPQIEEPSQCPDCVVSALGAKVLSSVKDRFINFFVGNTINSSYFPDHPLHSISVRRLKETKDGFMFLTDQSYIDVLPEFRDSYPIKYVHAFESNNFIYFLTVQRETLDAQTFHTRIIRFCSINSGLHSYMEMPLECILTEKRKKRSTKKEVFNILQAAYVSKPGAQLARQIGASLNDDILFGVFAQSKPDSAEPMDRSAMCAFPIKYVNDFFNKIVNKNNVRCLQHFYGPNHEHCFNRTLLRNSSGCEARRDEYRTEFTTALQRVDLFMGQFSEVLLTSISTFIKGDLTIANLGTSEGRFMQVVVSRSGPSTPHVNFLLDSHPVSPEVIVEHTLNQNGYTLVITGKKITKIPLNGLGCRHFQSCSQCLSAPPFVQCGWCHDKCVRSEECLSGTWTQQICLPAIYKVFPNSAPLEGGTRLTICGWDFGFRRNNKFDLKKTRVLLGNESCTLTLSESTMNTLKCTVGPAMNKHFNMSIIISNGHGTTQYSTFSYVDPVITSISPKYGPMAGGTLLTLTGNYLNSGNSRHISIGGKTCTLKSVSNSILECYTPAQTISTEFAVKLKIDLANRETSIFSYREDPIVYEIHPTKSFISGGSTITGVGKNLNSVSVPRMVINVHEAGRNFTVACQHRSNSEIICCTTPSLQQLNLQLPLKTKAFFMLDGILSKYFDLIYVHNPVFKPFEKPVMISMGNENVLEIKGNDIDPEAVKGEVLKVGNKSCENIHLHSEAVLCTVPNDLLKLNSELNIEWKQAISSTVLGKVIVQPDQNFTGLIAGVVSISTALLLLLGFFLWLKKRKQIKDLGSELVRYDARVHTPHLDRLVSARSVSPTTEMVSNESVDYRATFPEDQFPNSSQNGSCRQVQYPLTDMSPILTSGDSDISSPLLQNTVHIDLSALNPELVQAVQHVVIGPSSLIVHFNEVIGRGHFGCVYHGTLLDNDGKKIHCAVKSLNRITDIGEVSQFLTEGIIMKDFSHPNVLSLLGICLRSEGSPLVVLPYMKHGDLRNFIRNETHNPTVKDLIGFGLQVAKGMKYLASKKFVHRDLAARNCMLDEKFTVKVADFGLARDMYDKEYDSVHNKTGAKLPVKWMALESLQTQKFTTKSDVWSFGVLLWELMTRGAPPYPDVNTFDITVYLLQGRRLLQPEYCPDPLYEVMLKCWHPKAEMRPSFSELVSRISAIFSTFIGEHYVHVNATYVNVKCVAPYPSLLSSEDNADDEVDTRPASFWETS

Take `COc1cc(C(=O)N2CCC(N3CCN(C)CC3)CC2)ccc1Nc1ncc2c(n1)N(C)c1ccccc1C(=O)N2C` [15 (LRRK2-IN-1)]: on panel of 442 kinases [1], the “KINOMEscan: PAK6” value is reported as 98. Also, the “KINOMEscan: MET(Y1235D)” value at panel of 442 kinases [2] was found to be 100. The “KINOMEscan: CSK” value at panel of 442 kinases [3] is listed as 90.

Regarding `COc1cc(C(=O)N2CCC(N3CCN(C)CC3)CC2)ccc1Nc1ncc2c(n1)N1CCc3cccc(c31)C(=O)N2C` [Compound 24], the “KINOMEscan: MET(Y1235D)” value on panel of 442 kinases [2] worked out at 74. Besides, the “KINOMEscan: CSK” value on panel of 442 kinases [3] amounted to 75.

On to `COc1cc(C(=O)N2CCC(N3CCN(C)CC3)CC2)ccc1Nc1ncc2c(n1)N(C1CCCC1)c1ccccc1C(=O)N2C` [Compound 25, 11-cyclopentyl-2-((2-methoxy-4-(4-(4-methylpiperazin-1-yl)piperidine-1-carbonyl)phenyl)amino)-5-methyl-5H-benzo[e]pyrimido[5,4-b][1,4]diazepin-6(11H)-one], for which the “KINOMEscan: PAK6” value at panel of 442 kinases [1] was 86. The “KINOMEscan: MET(Y1235D)” value at panel of 442 kinases [2] came out at 100. Also, the “KINOMEscan: CSK” value on panel of 442 kinases [3] is on record as 74.

In the case of `CCOc1cc(C(=O)N2CCC(N3CCN(C)CC3)CC2)ccc1Nc1ncc2c(n1)N(C1CCCC1)c1ccccc1C(=O)N2C` [Compound 26], on panel of 442 kinases [1], the “KINOMEscan: PAK6” value was 100. Moreover, at panel of 442 kinases [2], the “KINOMEscan: MET(Y1235D)” value amounted to 100. At panel of 442 kinases [3], the “KINOMEscan: CSK” value was 100.
